Results on three molecules are retold here after US20090117167A1 (AlgoRx, priority 2002, published 2009).

Values joined by “and” are separate entries in the source; they are usually repeats but may differ in a detail not shown here. Identical values can stand only once.

Data set [1] deals with animal models of neuropathic pain (spinal nerve ligation). Conditions: administered locally; cited from earlier work.
Data set [2] concerns animal models of inflammatory pain (formalin test). Conditions: administered locally; cited from earlier work.
The conditions of data set [3]: organic solvents; cited from earlier work.
Data set [4] concerns subjects with osteoarthritis of the knee. The experiment in a line: Osteoarthritis of the knee safety study: safety and tolerability of intra-articular capsaicin. Format: in vivo, human. Conditions: for patients reporting transient burning pain / post injection hyperalgesia after instillation: 4 subjects. As for the experimental part:
The primary objective of the study was to evaluate the safety and tolerability of intra-articular capsaicin, when co-administered with intra-articular local anesthetic, compared to placebo, in subjects with end-stage osteoarthritis of the knee, already scheduled to receive knee replacements.
The study was designed to include 16 evaluation subjects. […] Sixteen subjects completed the study.
Patients were treated randomly and in double-blind fashion in four treatment groups, with each group having a progressively longer interval between the intra-articular administration of study medication and subsequent total knee replacement (2, 4, 7, and 14 days). […] Gross and microscopic pathology analysis was completed for each treatment group before the next treatment group was treated.
(§1) Each subject had 3 study visits: a Screening Day (Day −7 to −1), the Treatment Day (Day 0), and a Post-Treatment Day (scheduled for Day +2, +4, +7, or +14). On the Treatment Day the subject was randomized, pre-treatment evaluation was performed. The patients were brought into the procedure room, and a VAS pain score was taken (0 mm-no pain, 100 mm-extreme pain). Once the patient had marked his or her pain on the card, he/she was prepped for knee cannulation. Once the cannula was placed, the patient received by intra-articular infiltration, 3 mg/kg (maximum dose of 200 mg) of 2% lignocaine into the knee scheduled to be replaced.
(§2) VAS pain scores as well as verbal reports were taken immediately following administration, as well as prior to knee replacement surgery. No subjects discontinued from the study due to adverse events.

Details of data set [5]: species or system human. Conditions: in vivo. The method, then: The pharmacokinetic parameters of Cmax, Tmax, AUC(0-tlast) and t½ were evaluated.
In data set [6] the test system is subjects undergoing transpositional osteotomy (bunionectomy). In words: Bunionectomy efficacy study: VAS pain score and rescue medication. Type of data set: in vivo, human. Conditions: for VAS pain score at operation site: 1000 μg into wound, mean +/- SEM, n = 11. As for the experimental part: The primary efficacy endpoint was the proportion of subjects in each treatment group requiring opioid analgesia in the first 24 hours post-operatively. The proportions were compared amongst treatment groups using the Cochran-Haenszel test. Secondary efficacy end points included: i) proportion of subjects in each treatment group requiring opioid analgesia in the first 36 hour period post-operatively (Similarly, the proportions were compared amongst treatment groups using the Cochran-Haenszel test); ii) proportion of subjects in each treatment group requiring opioid analgesia in the 10 day period post-operatively (Similarly, the proportions were compared amongst treatment groups using the Cochran-Haenszel test); iii) time to first usage of opioid analgesia in each treatment group (a survival analysis approach will be used: the product-limit (Kaplan-Meier) method will be applied to time to first usage of opioid analgesia. The median time to first usage of opioid analgesia will be estimated in both treatment groups. Pairwise comparisons will be performed to test for equality of the survival curves between the 2 treatment groups using both the log-rank and the Wilcoxon test); iv) total usage of analgesia in each treatment group (the total usage of analgesia will be compared by an analysis of variance with treatment and center as independent variables. A pairwise comparison will be performed between the treatment groups); and v) VAS assessment of pain at the site of operation in each treatment group (The VAS score at each time point will be compared by an analysis of variance with treatment and center as independent variables. A pairwise comparison will be performed between the treatment groups). […] The efficacy analysis was performed on the data obtained ten days postoperatively. The safety analysis was performed based on the safety data for the entire study, including the 6 week and 12 week follow-up periods. The blind was broken at the time the efficacy analysis was performed. However, the individual treatment assignment was available to the statistical analysis group only. All other personnel involved in the study, including the Investigator, study monitor and proprietary staff, remained blinded until the entire study was completed.
The study was designed to include 40 evaluation subjects. […] Each subject had six (6) study visits: a Screening Day (Day −28 to −1), an Operation Day (Day 0), and four (4) Follow-up visits (scheduled for Days 3, 10 and weeks 6 and 12).
On Operation Day (Day 0) the following was performed: a) Pre-operation: Prior to the initiation of an ankle block, inclusion/exclusion criteria assessment was performed. […] Immediately prior to wound closure, the Investigator slowly dripped the study medication (4 mL) from a syringe into the wound, ensuring even tissue exposure. The wound was then be closed according to normal practices and procedures.
In the 24 hours following administration of study medication, vital signs (supine pulse rate and blood pressure) were recorded at 1, 2, 4 and 24 hours post administration. VAS assessment of pain at the operation site was performed at 1, 4, 8, 12 and 24 hours post administration. In those instances where VAS measurements coincide with blood sampling procedures, the VAS assessment was performed first. […] The quantity of each blood sample was 10 mL. Laboratory safety assessments, e.g., haematology, biochemistry, urinalysis were performed at 24 hours post administration. Adverse events were spontaneously reported by the subject and recorded. Rescue analgesia medication was provided to the subject if required (initially diclofenac 50 mg, repeated at 8 hourly intervals if necessary). When diclofenac was judged by the Investigator to provide inadequate pain relief then the subject was provided with alfentanil 1 mg, repeated at 6 hourly intervals, if necessary.

Data set [7] relates to subjects with osteoarthritis of the knee. The experiment in a line: Osteoarthritis of the knee safety study: VAS pain score at the target knee. Format: in vivo, human. As for the experimental part:
as §1, §2
On the Post-Treatment Day, study evaluation was performed followed by the scheduled knee replacement, with intra-operative bone and soft tissue biopsies performed for subsequent examination. […] This therefore left the 3 placebo and 9 active patients from the 4 day, 7 day, and 14 day cohorts.

For the next data set, the system named is rats. Conditions: systemic, cited from earlier work.

On to `CN(C)CCC=C1c2ccccc2CCc2ccccc21` [amitriptyline], for which the local antinociceptive action entry in data set [1] and in data set [2] was “produced local antinociceptive actions” throughout.
As to `COc1cc(CNC(=O)CCCC/C=C/C(C)C)ccc1O` [purified capsaicin, N-(4-hydroxy-3-methoxybenzyl)-8-methylnon-trans-6-enamide], the “solubility in alcohol, ether, benzene and chloroform” value in data set [3] is listed as “freely soluble”. Besides, the “patients reporting transient burning pain / post injection hyperalgesia after instillation” value in data set [4] (10 μg intra-articular after 2% lignocaine) is given as “no subjects”; in data set [4] (10 μg intra-articular after 2% lignocaine, listed as capsaicin) it was 0 of 4; in data set [4] (100 μg intra-articular after 2% lignocaine), 1; in data set [4] (100 μg intra-articular after 2% lignocaine, listed as capsaicin), 1 of 4; in data set [4] (300 μg intra-articular after 2% lignocaine) it was 4; in data set [4] (300 μg intra-articular after 2% lignocaine, listed as capsaicin), 4 of 4. For the same molecule, the “duration of post-administration (hyper) algesic pain” value in data set [4] (100 μg dose group, individual subject) was 9 min. Also, the “effects on laboratory safety parameters or vital signs” value in data set [4] (10-300 μg) is listed as “no treatment related effects”. Besides, the “effects on soft tissue, cartilage, or bone upon histopathological examination” value in data set [4] (10-300 μg) is given as “no treatment related effects”. The “signs of erythema, edema, or hemorrhage at the site of injection” value in data set [4] (10-300 μg) was “no treatment related signs”. Also, in data set [4] (10-300 μg), the systemic side effects entry was “No treatment related systemic side effects”. In data set [4] (all cases), the “average duration of hyperalgesia” value is “less than thirty minutes”. Also, the “gross and microscopic pathology” value in data set [4] (knee replaced 2-14 days after dosing) is “normal”. Also, in data set [5], the “plasma concentrations compared with 100 μg or 300 μg dose groups” value was “clearly lower”. Also, the “effect on pain score and use of rescue” value in data set [6] (1000 μg into the wound prior to wound closure) was “reduced both pain score as well as the use of rescue”. For the same molecule, the “time at which subject required rescue” value in data set [6] (1000 μg, individual subjects) is 1 h and 4 h and 5 h and 8 h and 12 h. Also, the “VAS pain score at operation site” value in data set [6] (8 hr) is given as 5.5 +/− 2.3; in data set [6] (12 hr) it was 8.2 +/− 3.8; in data set [6] (24 hr), 1.9 +/− 1.0; in data set [6] (48 hr), 5.9 +/− 2.5. The “VAS reduction, prior to administration vs day of surgery” value in data set [7] (9 active patients of 4, 7 and 14 day cohorts, 10-300 μg pooled) amounted to 62±14%. Also, the “median decrease from baseline to pre-operative time point in VAS for pain at target knee vs placebo” value in data set [7] (all 3 capsaicin dose groups) is “substantially greater”. Also, the “treatment related indication of efficacy (VAS)” value in data set [7] (any of the dose levels 10, 100, 300 μg) was “No clear treatment related indication of efficacy”. The “effect on pain threshold” value in the data set with rats (final doses 50 mg/kg or greater) is “pain threshold elevated”. For the same molecule, in the data set with rats (final doses of 25 mg/kg or less, prior to ultra violet radiation), the “effect on radiation induced hyperalgesia and pain threshold” value is on record as “prevented radiation induced hyperalgesia, but did not elevate the pain threshold above normal range”.
As for `CNCCCN1c2ccccc2CCc2ccccc21` [desipramine], the local antinociceptive action entry in data set [1] and in data set [2] was “produced local antinociceptive actions” in each case.
